The values that follow come from patent US4377583A, “N-Methyl-D-glucamine salt of with 3,4-dihydro-5-methyl-6-(2-methylpropyl)-4-oxothieno[2,3-d]pyrimidine-2-c arboxylic acid” (Mead Johnson & Company, priority 1981, dated 1983).

One data set is described as follows: pH of salts of MJ 12175. It is filed as physicochemical. The note with it: room temperature (about 25° C.). An excerpt: (§1) Many conventional pharmaceutically acceptable amine salts of MJ 12175 are not well suited for the present use due to limited solubility, lack of stability, pH ranges differing sufficiently from physiological pH (~7.4) to the extent that irritation of tissue becomes a problem.
(§2) The amine salts of MJ 12175 shown in Table 1 were first prepared in situ by adding the amine to a suspension of MJ 12175 in a quantity of water sufficient to give a 4% aqueous solution of the resulting salt. When a precipitate formed on amine addition indicating relative insolubility, pH was not measured as in the cases of salts 4 through 8 in Table 1. Although solutions were obtained with the other salts formed in situ supersaturation of these solutions appears likely since the four salts (Nos. 2, 3, 9, 11) which were isolated were less than 4% soluble on redissolution. […] The three crystalline salts were the only examples where solid precipitated from the in situ solutions on standing. Of the three crystalline isolated amine salts of MJ 12175, the glucamine salt best meets the water solubility and pH criteria.

The nature of data set [1]: Water solubility of isolated salts of MJ 12175 (redissolution). It is filed as physicochemical. The note with it: for H2O Solubility isolated salt: room temperature (about 25° C.).
Text: as §1, §2

Data set [2] can be described thus: Stability of aqueous solutions on extended storage.
For data set [3] the following is noted: cited from earlier work.
A short description of data set [4]: Water solubility of salts of MJ 12175 formed in situ (4% aqueous solution). The format is physicochemical. The note with it: room temperature (about 25° C.); precipitate formed on amine addition, indicating relative insolubility.
Text: as §1, §2

A short description of data set [5]: Physical state of isolated salts. The format is physicochemical.
Text: as §2

One may read the solubility as how much of the substance goes into solution per volume.

Structures can show the parent of a compound that is named as a salt.

As for `Cc1c(CC(C)C)sc2nc(C(=O)O)[nH]c(=O)c12` [compound 10], the pH in the data set “pH of salts of MJ 12175” is 4.55.

In the case of `Cc1c(CC(C)C)sc2nc(C(=O)O)[nH]c(=O)c12` [Salt No. 2, 3,4-Dihydro-5-methyl-6-(2-methylpropyl)-4-oxothieno[2,3-d]pyrimidine-2-carboxylic Acid N-methyl-D-glucamine Salt], the “H2O Solubility isolated salt” value in data set [1] came to 12000 µg/mL. Besides, the solubility in data set [1] (water, isolated salts, redissolution) is less than 40000 µg/mL. For the same molecule, the pH in “pH of salts of MJ 12175” turned out to be 6.4. Further, the “stability of aqueous solutions” value in data set [2] was “demonstrated the stability of its aqueous solutions on extended storage”.

In the case of `Cc1c(CC(C)C)sc2nc(C(=O)O)[nH]c(=O)c12` [potassium salt], the pH of solutions entry in data set [3] (not desirable for nasal instillation) was “alkaline pH”. Further, the water solubility result in data set [3] (relative to MJ 12175) is on record as “improved water solubility”.

As for `Cc1c(CC(C)C)sc2nc(C(=O)O)[nH]c(=O)c12` [compound 4], the “H2O Solubility in situ (ppt)” value in data set [4] is “ppt”.

For `Cc1c(CC(C)C)sc2nc(C(=O)O)[nH]c(=O)c12` [compound 13], in “pH of salts of MJ 12175”, the pH stood at 8.08.

In the case of `Cc1c(CC(C)C)sc2nc(C(=O)O)[nH]c(=O)c12` [MJ 12175, 3,4-Dihydro-5-methyl-6-(2-methylpropyl)-4-oxothieno[2,3-d]pyrimidine-2-carboxylic Acid], in data set [1] (listed as 1), the “H2O Solubility isolated salt” value was determined as 8900 µg/mL. Besides, in the data set “pH of salts of MJ 12175” (listed as 1), the pH was 11.22.

As for `Cc1c(CC(C)C)sc2nc(C(=O)O)[nH]c(=O)c12` [compound 12], in “pH of salts of MJ 12175”, the pH worked out at 6.29.

With `Cc1c(CC(C)C)sc2nc(C(=O)O)[nH]c(=O)c12` [compound 14], the pH in the data set “pH of salts of MJ 12175” was 9.59.

For the molecule `Cc1c(CC(C)C)sc2nc(C(=O)O)[nH]c(=O)c12` [compound 11], the “solubility of isolated salts on redissolution” value (“solubility of isolated salts” for short) in data set [1] (isolated salts, redissolution) is listed as “less than 4%”. Further, the pH in “pH of salts of MJ 12175” was determined as 6.42. In data set [5], the “physical state of isolated salt” value was “remained a non-crystallinetar during attempted purification”.

With `Cc1c(CC(C)C)sc2nc(C(=O)O)[nH]c(=O)c12` [compound 9], in data set [1] (isolated salts, redissolution), the “solubility of isolated salts” value is reported as “less than 4%”. Further, the “H2O Solubility isolated salt” value in data set [1] was less than 1000 µg/mL. Besides, the pH in the data set “pH of salts of MJ 12175” is 6.81.

On to `Cc1c(CC(C)C)sc2nc(C(=O)O)[nH]c(=O)c12` [compound 3], for which the “solubility of isolated salts” value in data set [1] (isolated salts, redissolution) was “less than 4%”. Further, the “H2O Solubility isolated salt” value in data set [1] is 5000 µg/mL. Moreover, the pH in the data set “pH of salts of MJ 12175” was found to be 4.7.
